Among the test systems are UACC-257 melanoma; MALME-3M melanoma; HOP-62 NSCLC; COLO 205 colon; HS 578T breast; K-562 leukemia; RPMI-8226 leukemia; T-47D breast; MDA-MB-231 breast; EKVX NSCLC.
Holding throughout (assay): DTP human tumour cell line panel, 48 h

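Test compounds were applied to cells in 96-well plates for 48 hours at 5 doses. Here, GI50 denotes the concentration required for 50% inhibition of growth. TGI is the concentration that stops growth completely.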

In general, GI50 refers to the concentration that inhibits growth by half. In general, TGI refers to the concentration giving total growth inhibition. A low value points to more potent growth arrest. Turning to `CS(=O)(=O)N1CCC(n2c(=O)c(Oc3ccc(F)cc3F)cc3cnc(NC4CCOCC4)nc32)CC1`, the GI50 in the test with UACC-257 melanoma is over 25 µM; with MALME-3M melanoma, over 25 µM; with HOP-62 NSCLC, over 25 µM; in the test on COLO 205 colon it was over 25 µM; in the test with HS 578T breast, over 11.6 µM; in the test on K-562 leukemia, over 25 µM. Moreover, the GI50 in the test on RPMI-8226 leukemia is over 17.5 µM; in the test with T-47D breast, over 20.8 µM; in the test on MDA-MB-231 breast, over 25 µM. Besides, the total growth inhibition concentration (TGI) in the test with UACC-257 melanoma, in the test on MALME-3M melanoma, with HOP-62 NSCLC, in the test on COLO 205 colon, with HS 578T breast and in the test with K-562 leukemia was over 25 µM throughout. In addition, the TGI with RPMI-8226 leukemia, in the test on T-47D breast and in the test on MDA-MB-231 breast was over 25 µM throughout.

Take `Cc1ccc([Se](=C(C(=O)c2ccccc2)C(=O)c2ccccc2)c2ccc(C)cc2)cc1`: the TGI with UACC-257 melanoma is 53.1 µM; in the test with MALME-3M melanoma it was 50.3 µM; in the test with HOP-62 NSCLC, over 100 µM; in the test with COLO 205 colon, 43.4 µM; with HS 578T breast, 72.9 µM; in the test with K-562 leukemia, 84.5 µM. Besides, the values for the TGI in the test with RPMI-8226 leukemia, with T-47D breast and in the test on MDA-MB-231 breast were 22.4 µM, over 100 µM and 35.2 µM, respectively.

On to `CN1CC=C(c2cc(NC(=O)Nc3ccc(Oc4ccnc(NC(=O)C5CC5)c4)c(F)c3)cc(C(F)(F)F)c2)CC1`, for which the GI50 in the test on UACC-257 melanoma was 1.34 µM; in the test with MALME-3M melanoma, 0.289 µM; in the test with HOP-62 NSCLC, 0.194 µM; with HS 578T breast, 0.982 µM; in the test with EKVX NSCLC it was 0.359 µM; in the test on T-47D breast, 1.37 µM. In addition, in the test with MDA-MB-231 breast, the 50% growth inhibitory concentration (GI50) is 0.176 µM. Further, the TGI in the test with UACC-257 melanoma worked out at 3.24 µM; with MALME-3M melanoma, 1.13 µM; in the test on HOP-62 NSCLC it was 1.12 µM; in the test with HS 578T breast it was 3.09 µM; in the test with EKVX NSCLC, 1.91 µM; in the test with T-47D breast, 3.99 µM. For the same molecule, the concentration for total growth inhibition (TGI) with MDA-MB-231 breast worked out at 0.806 µM.

For the molecule `CC1CCC2C(C)C(=O)OC3OC4(C)CCC1C32OO4` (configuration not stated), the GI50 in the test with UACC-257 melanoma, in the test with HOP-62 NSCLC, in the test with COLO 205 colon and with HS 578T breast was over 100 µM throughout. Moreover, the concentration for total growth inhibition (TGI) with UACC-257 melanoma, in the test on MALME-3M melanoma, with HOP-62 NSCLC, in the test on COLO 205 colon, in the test on HS 578T breast and in the test on K-562 leukemia was over 100 µM throughout. The TGI in the test on RPMI-8226 leukemia, in the test on EKVX NSCLC and in the test with MDA-MB-231 breast was over 100 µM in each case.

Turning to `COC(=O)c1cc(NC(=O)c2cc(NC(=O)c3cc([N+](=O)[O-])n(C)c3)cn2C)cn1C`, the GI50 with UACC-257 melanoma is over 100 µM; in the test on HOP-62 NSCLC, 6.4 µM; with COLO 205 colon, 45.9 µM; with HS 578T breast, over 100 µM; in the test on K-562 leukemia, over 100 µM; in the test on RPMI-8226 leukemia it was over 100 µM. The results for the GI50 with EKVX NSCLC, in the test on T-47D breast and in the test with MDA-MB-231 breast were over 100 µM, over 100 µM and 51 µM, respectively. Moreover, the TGI with UACC-257 melanoma, in the test on HOP-62 NSCLC, in the test with COLO 205 colon, in the test on HS 578T breast, in the test on K-562 leukemia and in the test with RPMI-8226 leukemia was over 100 µM throughout. Besides, the TGI in the test on EKVX NSCLC, with T-47D breast and in the test on MDA-MB-231 breast was over 100 µM in each case.

Regarding `O=C(c1ccccc1)C(Cl)C(Cl)c1ccccc1` (configuration not stated), the GI50 in the test with HOP-62 NSCLC was 7.61 µM; with COLO 205 colon, 2.06 µM; in the test with HS 578T breast it was 9.28 µM; in the test with K-562 leukemia, 2.6 µM; in the test on RPMI-8226 leukemia it was 2.27 µM; in the test with EKVX NSCLC, 5.24 µM. The GI50 was 2.74 µM with T-47D breast and 3.16 µM in the test with MDA-MB-231 breast. Besides, the concentration for total growth inhibition (TGI) turned out to be 21.7 µM in the test on HOP-62 NSCLC; 4.26 µM with COLO 205 colon; 45.3 µM in the test on HS 578T breast; 10.3 µM with K-562 leukemia; 7.08 µM in the test with RPMI-8226 leukemia; 18.9 µM with EKVX NSCLC. Besides, the TGI in the test with T-47D breast stood at 11.3 µM; in the test on MDA-MB-231 breast, 8.97 µM.

For the molecule `COc1ccc(/C=C/C(=O)c2c(O)ccc3c(C)c(C(=O)O)oc23)cc1`, the GI50 is 84.9 µM with UACC-257 melanoma; 94.6 µM in the test on MALME-3M melanoma; 89.9 µM with HOP-62 NSCLC; 63.4 µM in the test on COLO 205 colon; 39.7 µM in the test on HS 578T breast; 36.2 µM in the test with K-562 leukemia. The GI50 is over 100 µM in the test on EKVX NSCLC, 64.7 µM in the test on T-47D breast and 44.7 µM in the test with MDA-MB-231 breast. Further, the total growth inhibition concentration (TGI) in the test with UACC-257 melanoma, in the test with MALME-3M melanoma, with HOP-62 NSCLC, in the test on COLO 205 colon, in the test on HS 578T breast and in the test with K-562 leukemia was over 100 µM in each case. For the same molecule, the TGI in the test with EKVX NSCLC, in the test on T-47D breast and in the test with MDA-MB-231 breast was over 100 µM throughout.

`COc1cc(-c2cc3ncccc3c3nc(OCCN(C)C)c4cccnc4c23)cc(OC)c1OC`: the GI50 with UACC-257 melanoma was 0.567 µM; in the test with MALME-3M melanoma it was 0.431 µM; with HOP-62 NSCLC, 0.75 µM; in the test on HS 578T breast, 1.5 µM; in the test on K-562 leukemia, 0.339 µM; in the test with RPMI-8226 leukemia it was 0.372 µM. Further, the figures for the GI50 in the test on EKVX NSCLC and with T-47D breast were 0.513 µM and 0.769 µM, respectively. In addition, the total growth inhibition concentration (TGI) was determined as 4.06 µM in the test with UACC-257 melanoma; 2.5 µM with MALME-3M melanoma; 3 µM in the test with HOP-62 NSCLC; 14.9 µM with HS 578T breast; 4.63 µM in the test on K-562 leukemia; 2.79 µM in the test with RPMI-8226 leukemia. Moreover, the TGI in the test with EKVX NSCLC amounted to 3.24 µM; in the test on T-47D breast, 37 µM.

Take `COC(=O)C12CCC(C)(C)CC1C1=CCC3C4(C)CC(O)C(O)C(C)(C(=O)OC)C4CCC3(C)C1(CO)CC2` (configuration not stated): the concentration for total growth inhibition (TGI) with UACC-257 melanoma was 31.7 µM; with HOP-62 NSCLC it was 32.2 µM; in the test on COLO 205 colon it was 29.1 µM; in the test with HS 578T breast, 28.2 µM; with K-562 leukemia, over 100 µM; with RPMI-8226 leukemia, 40.9 µM. For the same molecule, the TGI in the test on EKVX NSCLC was determined as 44.1 µM; in the test with T-47D breast, 24 µM; with MDA-MB-231 breast it was 33.5 µM.

With `CNC(=O)c1nn(C)c2c1C(C)(C)Cc1cnc(Nc3cccc(N4CCN(C)CC4)c3)nc1-2`, the 50% growth inhibitory concentration (GI50) in the test on UACC-257 melanoma was 0.386 µM; with MALME-3M melanoma it was 0.223 µM; with HOP-62 NSCLC, 0.44 µM; with COLO 205 colon, 0.239 µM; in the test on HS 578T breast, 0.204 µM; with K-562 leukemia, 0.443 µM. The GI50 in the test with RPMI-8226 leukemia is 0.192 µM; in the test with T-47D breast, 0.59 µM. In addition, the total growth inhibition concentration (TGI) with UACC-257 melanoma was 7.09 µM; in the test with MALME-3M melanoma, 5.59 µM; with HOP-62 NSCLC, 17.9 µM; with COLO 205 colon, 1.59 µM; with HS 578T breast it was 2.46 µM; with K-562 leukemia it was over 50 µM. In addition, the TGI came to 1.06 µM with RPMI-8226 leukemia and 22.6 µM in the test with T-47D breast.

For the origin of these results see PubChem BioAssay (NCI).
